Experiment [1] deals with anti-Aβ antibodies in sera of vaccinated patients. The experiment in a line: Epitope mapping, competitive binding inhibition EIA with patient sera (10-mer peptides, IC50). More on the design: species or system human; Epitope mapping, fine specificity analysis, serum of subject P210: unit not given here. The settings on record: for Epitope mapping, fine specificity analysis, serum of subject P101: serum 16 wpi of vaccinated patient P101; for Epitope mapping, fine specificity analysis, serum of subject P102: serum 16 wpi of vaccinated patient P102; for Epitope mapping, fine specificity analysis, serum of subject P103: serum 16 wpi of vaccinated patient P103; for Epitope mapping, fine specificity analysis, serum of subject P104: serum 16 wpi of vaccinated patient P104; for Epitope mapping, fine specificity analysis, serum of subject P105: serum 16 wpi of vaccinated patient P105; for Epitope mapping, fine specificity analysis, serum of subject P106: serum 16 wpi of vaccinated patient P106; for Epitope mapping, fine specificity analysis, serum of subject P107: serum 16 wpi of vaccinated patient P107; for Epitope mapping, fine specificity analysis, serum of subject P108: serum 16 wpi of vaccinated patient P108; for Epitope mapping, fine specificity analysis, serum of subject P109: serum 16 wpi of vaccinated patient P109; for Epitope mapping, fine specificity analysis, serum of subject P201: serum 16 wpi of vaccinated patient P201; for Epitope mapping, fine specificity analysis, serum of subject P202: serum 16 wpi of vaccinated patient P202; for Epitope mapping, fine specificity analysis, serum of subject P203: serum 16 wpi of vaccinated patient P203; for Epitope mapping, fine specificity analysis, serum of subject P204: serum 16 wpi of vaccinated patient P204; for Epitope mapping, fine specificity analysis, serum of subject P205: serum 16 wpi of vaccinated patient P205; for Epitope mapping, fine specificity analysis, serum of subject P206: serum 16 wpi of vaccinated patient P206; for Epitope mapping, fine specificity analysis, serum of subject P207: serum 16 wpi of vaccinated patient P207; for Epitope mapping, fine specificity analysis, serum of subject P208: serum 16 wpi of vaccinated patient P208; for Epitope mapping, fine specificity analysis, serum of subject P209: serum 16 wpi of vaccinated patient P209; for Epitope mapping, fine specificity analysis, serum of subject P210: serum 16 wpi of vaccinated patient P210.

Experiment [2] has as its system anti-Aβ antibodies in macaque antisera. The experiment in a line: Specificity analysis (10-mer peptide ELISA) of antisera from Cynomolgus macaques. In kind it is binding. Background: ELISA stands for enzyme-linked immunosorbent assay.
Where [3] appears, read: antisera of macaques given UBI AD Vaccine 150 μg/dose, 9 WPI.
Setting [4] is: antisera of macaques given UBI AD Vaccine 150 μg/dose, 15 WPI.
The mark [5] stands for this setting: antisera of macaques given UBI AD Vaccine 750 μg/dose, 9 WPI.
[6] abbreviates: antisera of macaques given UBI AD Vaccine 750 μg/dose, 15 WPI.

Consider “24 (GYEVHHQKLV; PEPTIDE (1)..(10) Abeta 9-18 or APP 770(G680-V689); listed as Homo sapiens) [compound 24]”, for which, in experiment [1], the “Epitope mapping, fine specificity analysis, serum of subject P101” value is listed as 0; the “Epitope mapping, fine specificity analysis, serum of subject P102” value came to 0; the “Epitope mapping, fine specificity analysis, serum of subject P103” value came to 0; the “Epitope mapping, fine specificity analysis, serum of subject P104” value was 0. In experiment [1], the “Epitope mapping, fine specificity analysis, serum of subject P105” value is recorded as 0; the “Epitope mapping, fine specificity analysis, serum of subject P106” value is recorded as 0; the “Epitope mapping, fine specificity analysis, serum of subject P107” value was determined as 0; the “Epitope mapping, fine specificity analysis, serum of subject P108” value came to 0. In experiment [1], the “Epitope mapping, fine specificity analysis, serum of subject P109” value is 0; the “Epitope mapping, fine specificity analysis, serum of subject P201” value came to 0; the “Epitope mapping, fine specificity analysis, serum of subject P202” value is 0; the “Epitope mapping, fine specificity analysis, serum of subject P203” value came out at 0. In experiment [1], the “Epitope mapping, fine specificity analysis, serum of subject P204” value was 0; the “Epitope mapping, fine specificity analysis, serum of subject P205” value is given as 0; the “Epitope mapping, fine specificity analysis, serum of subject P206” value is given as 0; the “Epitope mapping, fine specificity analysis, serum of subject P207” value was found to be 16. For the same substance, in experiment [1], the “Epitope mapping, fine specificity analysis, serum of subject P208” value amounted to 0; the “Epitope mapping, fine specificity analysis, serum of subject P209” value is recorded as 0; the “Epitope mapping, fine specificity analysis, serum of subject P210” value is 0. Moreover, the “Reactivity of antisera with peptide (specificity analysis ELISA)” value (from here on “Reactivity of antisera with peptide”) in experiment [2] (setting [3]) was 0.055. In addition, the “Reactivity of antisera with peptide” value in experiment [2] (setting [4]) came to 0.067. Also, the “Reactivity of antisera with peptide” value in experiment [2] (setting [5]) came to 0.052. For the same substance, the “Reactivity of antisera with peptide” value in experiment [2] (setting [6]) came out at 0.059.
Turning to “25 (YEVHHQKLVF; PEPTIDE (1)..(10) Abeta 10-19 or APP 770(Y681-F690); listed as Homo sapiens) [compound 25]”, in experiment [1], the “Epitope mapping, fine specificity analysis, serum of subject P101” value stood at 0; the “Epitope mapping, fine specificity analysis, serum of subject P102” value was determined as 0; the “Epitope mapping, fine specificity analysis, serum of subject P103” value is reported as 0; the “Epitope mapping, fine specificity analysis, serum of subject P104” value is 0. Further, in experiment [1], the “Epitope mapping, fine specificity analysis, serum of subject P105” value amounted to 0; the “Epitope mapping, fine specificity analysis, serum of subject P106” value was 0; the “Epitope mapping, fine specificity analysis, serum of subject P107” value is 0; the “Epitope mapping, fine specificity analysis, serum of subject P108” value was found to be 0. In addition, in experiment [1], the “Epitope mapping, fine specificity analysis, serum of subject P109” value was found to be 0; the “Epitope mapping, fine specificity analysis, serum of subject P201” value came out at 0; the “Epitope mapping, fine specificity analysis, serum of subject P202” value is 0; the “Epitope mapping, fine specificity analysis, serum of subject P203” value was determined as 0. For the same substance, in experiment [1], the “Epitope mapping, fine specificity analysis, serum of subject P204” value was 0; the “Epitope mapping, fine specificity analysis, serum of subject P205” value came to 0; the “Epitope mapping, fine specificity analysis, serum of subject P206” value amounted to 0; the “Epitope mapping, fine specificity analysis, serum of subject P207” value worked out at 10. Further, in experiment [1], the “Epitope mapping, fine specificity analysis, serum of subject P208” value is 0; the “Epitope mapping, fine specificity analysis, serum of subject P209” value is listed as 0; the “Epitope mapping, fine specificity analysis, serum of subject P210” value was determined as 0. Also, the “Reactivity of antisera with peptide” value in experiment [2] (setting [3]) is on record as 0.092. Besides, the “Reactivity of antisera with peptide” value in experiment [2] (setting [4]) is 0.069. Also, the “Reactivity of antisera with peptide” value in experiment [2] (setting [5]) is given as 0.069. Moreover, in experiment [2] (setting [6]), the “Reactivity of antisera with peptide” value was 0.058.
